In patent publication US6989396B2, “Tropane alkaloid multidrug resistance inhibitors from Erythroxylum pervillei and use of the same” (The Board of Trustees of the University of Illinois, priority 2001, dated 2006):
≈ marks a conversion by molar mass, not a printed value. Where “and” joins values, the source holds several entries; their conditions need not be identical. Identical values can stand only once. Like-named read-outs stand apart in the source and are kept apart here.

Legend:
Col2, colon cancer = assay: In vitro cytotoxicity, human tumor panel: Col2; type: cell-based; conditions: for IC50: Homo sapiens, read-out: ED50 Col2
Description: (§1) Cytotoxicity assay. Compounds 1–9 were evaluated for cytotoxic activity against a panel of human cancer cell lines, including KB-V1 in the presence and absence of VLB, according to an established protocol (68).

[1] = tested on: SW626, human ovarian adenocarcinoma; assay: In vitro cytotoxicity, human tumor panel: SW626; type: cell-based; conditions: for IC50: SW626, read-out: ED50 SW626
Description: as §1

BC1, breast cancer = assay: In vitro cytotoxicity, human tumor panel: BC1; type: cell-based; conditions: for IC50: Homo sapiens, read-out: ED50 BCI
Description: as §1

KB-V1, drug resistant KB = assay: In vitro cytotoxicity, human tumor panel: KB-V1 with or without vinblastine; type: cell-based; conditions: for ED50 KB-V1+: drug resistant KB assessed in presence of vinblastine (1 μg/mL); for IC50: Homo sapiens, KB-V1, read-out: ED50 KB-V1−
Description: as §1

[2] = tested on: LNCaP, hormone-dependent prostate cancer; assay: In vitro cytotoxicity, human tumor panel: LNCaP; type: cell-based; conditions: for IC50: Homo sapiens, LNCaP, read-out: ED50 LNCaP
Description: as §1

Lu1, lung cancer = assay: In vitro cytotoxicity, human tumor panel: Lu1; type: cell-based; conditions: for IC50: Homo sapiens, read-out: ED50 Lu1
Description: as §1

[3] = tested on: KB, oral epidermoid carcinoma; assay: In vitro cytotoxicity, human tumor panel: KB; type: cell-based; conditions: for IC50: Homo sapiens, read-out: ED50 KB
Description: as §1

[4] = tested on: SKOV3 (ovarian adenocarcinoma); assay: Cytotoxicity in ovarian adenocarcinoma SKOV3 (pGp -ve); type: cell-based
Description: as §1

[5] = tested on: SKVLB (ovarian adenocarcinoma, multidrug resistance); assay: Multidrug resistance inhibition in SKVLB (pGp +ve); type: cell-based, human
CEM/VLB100 cells = assay: MDR reversal in drug-resistant human leukemia CEM/VLB100 cells; type: cell-based; conditions: Homo sapiens
Description: (§2) Cytotoxic potential. The cytotoxic potential of test substances with KB-3, KB-V1 and KB-8-5 cells was determined as described previously (24). Briefly, various concentrations of test compounds (dissolved in 10 μl of 10% DMSO) were transferred to 96-well plates, and 190 μl aliquots of cell suspensions (5×10^4 cells/ml) were added to each well. The plates then were incubated for 72 hours at 37° C. (100% humidity with a 5% CO2 atmosphere in air), and 100 μl of cold 20% aqueous trichloroacetic acid were added to the growth medium in each well to fix the cells. The cultures were incubated at 4° C. for 30 minutes, washed, air-dried, stained with sulforhodamine B solution, and washed with 1% acetic acid. […] In each case, a zero-day control was performed by adding an equivalent number of cells to several wells and incubating at 37° C. for 30 minutes, and processing as described above. Optical density values obtained with the zero-day control were subtracted, and cell survival, relative to control (solvent-treated) cultures, was calculated. The cytotoxic potential of the compounds with CEM and CEM/VLB100 cells was determined as described by Beck et al. (30). Cells were grown in 24-well plates at a density of 5–6×10^5 cells/ml. At 48 hours, the cell number was determined using a Coulter Counter, with a channelizer to distinguish cells from debris.

KB-V1 cells [6] = assay: In vivo hollow fiber test: KB-V1; parameters: species or system NCr nu/nu mice
Description: (§3) In vivo hollow fiber test. […] Confluent monolayers of KB-3, KB-V1 or KB-8-5 cells were harvested, collected by centrifugation and resuspended in conditioned medium at a concentration of 7.5×10^5 cells/ml.
(§4) Test compounds were administrated once daily by intraperitoneal injection from day 3–6 after implantation. Body weights were measure daily.
(§5) After incubating at 37° C. for 4 hours, the culture medium was aspirated and the samples were washed twice with normal saline containing 2.5% protamine sulfate solution by overnight incubation at 4° C. […] The formazan was extracted from each sample with DMSO (250 μl/well) for 4 hours at room temperature on a rotation platform.

KB-8-5 cells [7] = assay: In vivo hollow fiber test: KB-8-5; parameters: species or system NCr nu/nu mice
Description: as §3, §4, §5

KB-8-5 cells [8] = assay: Reversal of MDR, cell survival assay: KB-8-5 with or without colchicine; type: cell-based, human; conditions: Homo sapiens
Description: as §2

KB-V1 cells [9] = assay: Reversal of MDR, cell survival assay: KB-V1 with or without vinblastine; type: cell-based, human
Description: (§6) One part of a natural product drug discovery program involves monitoring the potential of plant extracts to reverse multiple drug resistance. […] To investigate the potential of plant extracts or compounds to reverse multidrug-resistance, KB-V1 cells are treated with different concentrations of plant extracts or compounds in the presence (1 μg/ml) or absence of vinblastine.
as §2

KB-3 cells = assay: Growth inhibitory potential (sulforhodamine B cell survival assay): KB-3; type: cell-based; conditions: Homo sapiens, KB3, 72 h, read-out: IC50 KB-3
Description: as §6
Cytotoxic potential. The cytotoxic potential of test substances with KB-3, KB-V1 and KB-8-5 cells was determined as described previously (24). Briefly, various concentrations of test compounds (dissolved in 10 μl of 10% DMSO) were transferred to 96-well plates, and 190 μl aliquots of cell suspensions (5×10^4 cells/ml) were added to each well. The plates then were incubated for 72 hours at 37° C. (100% humidity with a 5% CO2 atmosphere in air), and 100 μl of cold 20% aqueous trichloroacetic acid were added to the growth medium in each well to fix the cells. The cultures were incubated at 4° C. for 30 minutes, washed, air-dried, stained with sulforhodamine B solution, and washed with 1% acetic acid. Finally, 200 μl of 10 mM Tris base were added to each well and the optical densities were determined at 515 nm utilizing an ELISA plate reader. In each case, a zero-day control was performed by adding an equivalent number of cells to several wells and incubating at 37° C. for 30 minutes, and processing as described above. Optical density values obtained with the zero-day control were subtracted, and cell survival, relative to control (solvent-treated) cultures, was calculated. The cytotoxic potential of the compounds with CEM and CEM/VLB100 cells was determined as described by Beck et al. (30). Cells were grown in 24-well plates at a density of 5–6×10^5 cells/ml. At 48 hours, the cell number was determined using a Coulter Counter, with a channelizer to distinguish cells from debris.

[10] = drug-resistant KB assessed in the absence of vinblastine
[11] = Homo sapiens, SK-OV-3; read-out: IC50 SKOV3 (pGp − ve)
[12] = Homo sapiens, no adriamycin added, read-out: IC50 BSKVLB (pGp + ve)
[13] = summation of single-agent inhibitions
[14] = vinblastine 100 μg/kg + reversing agent 0.136 mmol/kg

COc1cc(C(=O)O[C@H]2C[C@H]3CC[C@@H](C2)N3C)cc(OC)c1OC [Compound 2, 1αH,5αH-Tropan-3α-yl 3,4,5-trimethoxy-benzoate]
ED50 Col2 (Col2, colon cancer): >20 µg/mL | ED50 SW626 [1]: >20 µg/mL | ED50 BCI (BC1, breast cancer): >20 µg/mL | ED50 KB-V1+ (KB-V1, drug resistant KB): >20 µg/mL | ED50 KB-V1− (KB-V1, drug resistant KB; [10]): >20 µg/mL | ED50 LNCaP [2]: >20 µg/mL | ED50 Lu1 (Lu1, lung cancer): >20 µg/mL | ED50 KB [3]: >20 µg/mL

COc1cc(C=CC(=O)O[C@H]2[C@@H](O)[C@@H]3C[C@H](OC(=O)c4cc(OC)c(OC)c(OC)c4)C[C@H]2[N+]3(C)[O-])cc(OC)c1OC (stereo partly drawn) [Compound 4, 3α-(3,4,5-trimethoxybenzoyloxy)-6β-(3,4,5-trimethoxycinnamoyloxy)-7β-hydroxytropane N-oxide]
IC50 (Col2, colon cancer): > 20 µg/mL | IC50 [1]: > 20 µg/mL | IC50 (BC1, breast cancer): > 20 µg/mL | IC50 (KB-V1, drug resistant KB; [10]): > 20 µg/mL | ED50 KB-V1+ (KB-V1, drug resistant KB): >20 µg/mL | IC50 [2]: > 20 µg/mL | IC50 ([4]; Homo sapiens, SK-OV-3, read-out: IC50 SKOV3 (pGp − ve)): > 10 µM | IC50 (Lu1, lung cancer): > 20 µg/mL | IC50 ([5]; Homo sapiens, read-out: IC50 BSKVLB (pGp + ve)): > 10 µM | IC50 ([5]; read-out: IC50 SKVLB (pGp + ve), addition of adriamycin, Addition of 1 μm adriamycin): > 10 µM | melting point: 118 to 121 °C | IC50 [3]: > 20 µg/mL

COc1cccc2c1C(=O)c1c(O)c3c(c(O)c1C2=O)C[C@@](O)(C(=O)CO)C[C@@H]3O[C@H]1C[C@H](N)[C@H](O)[C@H](C)O1 [adriamycin, reference compound]
IC50 [4, 11]: 0.008 µM | IC50 [5, 12]: 2.2 µM

COc1cc2c(cc1OC)CN(CCc1ccc(NC(=O)c3cccc4c(=O)c5cccc(OC)c5[nH]c34)cc1)CC2 [GB120918, N-{4-[2-(1,2,3,4-tetrahydro-6,7-dimethoxy-2-isoquinolinyl)-ethyl]-phenyl}-9,10-dihydro-5-methoxy-9-oxo-4-acridine carboxamide, reference compound]
IC50 [4, 11]: 8.1 µM | IC50 ([5]; Homo sapiens, Addition of 1 μm adriamycin, read-out: IC50 SKVLB (pGp + ve), addition of adriamycin): 0.02 µM | IC50 [5, 12]: 14 µM

CN1[C@@H]2C[C@@H](OC(=O)Cc3ccccc3)C[C@H]1[C@H](O)[C@@H]2O [Compound 1, Tropane-3α,6β,7β-triol 3-phenylacetate]
IC50 (Col2, colon cancer): > 20 µg/mL | IC50 [1]: > 20 µg/mL | IC50 (BC1, breast cancer): > 20 µg/mL | IC50 (KB-V1, drug resistant KB; [10]): > 20 µg/mL | ED50 KB-V1+ (KB-V1, drug resistant KB): >20 µg/mL | IC50 [2]: > 20 µg/mL | IC50 (Lu1, lung cancer): > 20 µg/mL | melting point: 120 to 122 °C | IC50 [3]: > 20 µg/mL

COc1cccc2c1C(=O)c1c(O)c3c(c(O)c1C2=O)C[C@@](O)(C(C)=O)C[C@@H]3O[C@H]1C[C@H](N)[C@H](O)[C@H](C)O1 [daunorubicin, reference compound]
IC50 (CEM/VLB100 cells; CEM/VLB100 cells, read-out: IC50 value of the cytotoxic drug in the absence of modulator): 1 µM

COc1ccc(CCN(C)CCCC(C#N)(c2ccc(OC)c(OC)c2)C(C)C)cc1OC (stereo not drawn) [verapamil, reference compound]
inhibition of cell growth when used in combination with vinblastine (KB-V1 cells [6]; KB-V1 or KB-8-5 cells in hollow fibers implanted into NCr nu/nu mice): less effective | Calculated inhibition (vinblastine + reversing agent as single agents), KB-V1, i.p. site (KB-V1 cells [6]; [13]): 7.4% and 6.2% | Calculated inhibition (vinblastine + reversing agent as single agents), KB-V1, s.c. site (KB-V1 cells [6]; [13]): 3.8% and 10.8% | Observed inhibition from coadministration with vinblastine, KB-V1, s.c. site (KB-V1 cells [6]; vinblastine 250 μg/kg + reversing agent 0.136 mmol/kg): 7.8 (P = 0.73) % and 13.6 (P = 0.098) % | Observed inhibition from coadministration with vinblastine, KB-V1, i.p. site (KB-V1 cells [6]; vinblastine 250 μg/kg + reversing agent 0.136 mmol/kg, i.p. injection once daily days 3–6): 60.3 (P < 0.0001) % and 56.6 (P < 0.0001) % | Calculated inhibition (vinblastine + reversing agent as single agents), KB-8-5, i.p. site (KB-8-5 cells [7]; [13]): 5.9% | Calculated inhibition (vinblastine + reversing agent as single agents), KB-8-5, s.c. site (KB-8-5 cells [7]; [13]): 3.7% | Observed inhibition from coadministration with vinblastine, KB-8-5, i.p. site (KB-8-5 cells [7]; [14]): 52 (P < 0.0001) % | Observed inhibition from coadministration with vinblastine, KB-8-5, s.c. site (KB-8-5 cells [7]; [14]): 11.7 (P = 0.06) % | Growth inhibition, single agent, KB-8-5, s.c. site (KB-8-5 cells [7]; vinblastine 100 μg/kg, reversing agents 0.136 mmol/kg): 1.4% | Growth inhibition, single agent, KB-8-5, i.p. site (KB-8-5 cells [7]; vinblastine 100 μg/kg, reversing agents 0.136 mmol/kg, i.p. injection once daily days 3–6): 4.7% | IC50 (CEM/VLB100 cells; CEM/VLB100, 48 h, read-out: IC50 Modulator only): > 15 µM | IC50 (CEM/VLB100 cells; CEM/VLB100, read-out: IC50 (Modulator + Daunorubicin)): 0.5 µM | IC50 (CEM/VLB100 cells; CEM/VLB100, read-out: IC50 (Modulator + Vinblastine)): 0.025 µM | IC50 (KB-8-5 cells [8]): > 44 µM | IC50 (KB-V1 cells [9]; Homo sapiens, KB-V1, 72 h, read-out: IC50 KB-V1 (+), presence of vinblastine (1 μg/ml), 72 hours): 0.79 µM | IC50 (KB-V1 cells [9]; Homo sapiens, KB-V1, 72 h, read-out: IC50 KB-V1 (−), absence of vinblastine, 72 hours): > 44 µM | IC50 (KB-V1 cells [9]; read-out: IC50 KB-V1 (−), absence of vinblastine, 72 hours): 44 µM | IC50 (KB-3 cells): 37 µM

COc1cc(C=CC(=O)O[C@H]2C[C@@H]3C[C@H](OC(=O)Cc4cccc(O)c4)C[C@H]2N3C)cc(OC)c1OC [Compound 8, 3α-(3-hydroxyphenylacetoxy)-6β-(3,4,5-trimethoxycinnamoyloxy)-tropane]
IC50 (Col2, colon cancer): 13.4 µg/mL (≈ 26.2 µM) | IC50 [1]: 8.4 µg/mL (≈ 16.4 µM) | IC50 (BC1, breast cancer): > 20 µg/mL | IC50 (KB-V1, drug resistant KB; [10]): > 20 µg/mL | ED50 KB-V1+ (KB-V1, drug resistant KB): 1.9 µg/mL | IC50 [2]: > 20 µg/mL | IC50 (Lu1, lung cancer): > 20 µg/mL | melting point: 53 to 57 °C | IC50 [3]: 14.7 µg/mL (≈ 28.7 µM)
